Reference: ChEMBL document CHEMBL1201862, “PubChem BioAssay data set” (2004)
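Assay format: 96-well plates, 48-hour exposure. GI50: concentration for 50% inhibition of growth.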 Activity calls are given as the source filed them. Rule as the data show it: active = GI50 up to about 1.1 µM and inactive = higher.

Columns and labels:
Assay in all cases: NCI anticancer screen, dose series, 48 h
KM12 = system: KM12
MDA-MB-231 = system: MDA-MB-231
LOX IMVI = system: LOX IMVI
OVCAR-5 = system: OVCAR-5
SK-OV-3 = system: SK-OV-3
NCI-H226 = system: NCI-H226
HCT-116 = system: HCT-116
HOP-62 = system: HOP-62
OVCAR-4 = system: OVCAR-4
HT-29 = system: HT-29
NCI-H460 = system: NCI-H460
SK-MEL-5 = system: SK-MEL-5
TK-10 = system: TK-10
DU-145 = system: DU-145
LXFL 529 = system: LXFL 529
CAKI-1 = system: CAKI-1
MDA-MB-435 = system: MDA-MB-435
UACC-257 = system: UACC-257
SW-620 = system: SW-620
KM-20L2 = system: KM-20L2
CCRF-CEM = system: CCRF-CEM
SF-539 = system: SF-539
SNB-75 = system: SNB-75
U-251 = system: U-251
OVCAR-3 = system: OVCAR-3
HOP-18 = system: HOP-18
HCC 2998 = system: HCC 2998
SNB-19 = system: SNB-19
UACC-62 = system: UACC-62
K562 = system: K562
SF-295 = system: SF-295
COLO 205 = system: COLO 205
HCT-15 = system: HCT-15
SR = system: SR
786-0 = system: 786-0
M19-MEL = system: M19-MEL
NCI-H23 = system: NCI-H23
A498 = system: A498
NCI/ADR-RES = system: NCI/ADR-RES
MDA-N = system: MDA-N
SF-268 = system: SF-268
MCF7 = system: MCF7
T47D = system: T47D
Hs-578T = system: Hs-578T
RXF 393 = system: RXF 393
RPMI-8226 = system: RPMI-8226
SK-MEL-28 = system: SK-MEL-28
M14 = system: M14
SNB-78 = system: SNB-78
SK-MEL-2 = system: SK-MEL-2
HOP-92 = system: HOP-92
ACHN = system: ACHN
DMS-114 = system: DMS-114
UO-31 = system: UO-31
IGROV-1 = system: IGROV-1
DMS-273 = system: DMS-273
SN12C = system: SN12C
PC-3 = system: PC-3
A549 = system: A549
HL-60 = system: HL-60
MOLT-4 = system: MOLT-4
OVCAR-8 = system: OVCAR-8
EKVX = system: EKVX
Malme-3M = system: Malme-3M
NCI-H522 = system: NCI-H522
DLD-1 = system: DLD-1

BrCc1ccc2ccc3ccc(CBr)nc3c2n1
GI50 (KM12): 3.61 µM (inactive)
GI50 (MDA-MB-231): 1.62 µM (inactive)
GI50 (LOX IMVI): 1.58 µM (inactive)
GI50 (OVCAR-5): 9.44 µM (inactive)
GI50 (SK-OV-3): 3.08 µM (inactive)
GI50 (NCI-H226): 5.92 µM (inactive)
GI50 (HCT-116): 2.34 µM (inactive)
GI50 (HOP-62): 7 µM (inactive)
GI50 (OVCAR-4): 3.5 µM (inactive)
GI50 (HT-29): 1.95 µM (inactive)
GI50 (NCI-H460): 4.23 µM (inactive)
GI50 (SK-MEL-5): 2.77 µM (inactive)
GI50 (TK-10): 2.57 µM (inactive)
GI50 (DU-145): 8.18 µM (inactive)
GI50 (LXFL 529): 1.75 µM (inactive)
GI50 (CAKI-1): 3.55 µM (inactive)
GI50 (MDA-MB-435): 4.12 µM (inactive)
GI50 (UACC-257): 3.18 µM (inactive)
GI50 (SW-620): 2.2 µM (inactive)
GI50 (KM-20L2): 3.28 µM (inactive)
GI50 (CCRF-CEM): 0.995 µM (active)
GI50 (SF-539): 4.67 µM (inactive)
GI50 (SNB-75): 1.32 µM (inactive)
GI50 (U-251): 5.56 µM (inactive)
GI50 (OVCAR-3): 1.72 µM (inactive)
GI50 (HOP-18): 1.83 µM (inactive)
GI50 (HCC 2998): 2.86 µM (inactive)
GI50 (SNB-19): 12.7 µM (inactive)
GI50 (UACC-62): 3.26 µM (inactive)
GI50 (K562): 2.53 µM (inactive)
GI50 (SF-295): 10.4 µM (inactive)
GI50 (COLO 205): 1.92 µM (inactive)
GI50 (HCT-15): 2.01 µM
GI50 (SR): 1.87 µM (inactive)
GI50 (786-0): 2.51 µM (inactive)
GI50 (M19-MEL): 3.86 µM (inactive)
GI50 (NCI-H23): 5.61 µM (inactive)
GI50 (A498): 2.64 µM (inactive)
GI50 (NCI/ADR-RES): 1.86 µM (inactive)
GI50 (MDA-N): 2.74 µM (inactive)
GI50 (SF-268): 3.27 µM (inactive)
GI50 (MCF7): 1.88 µM (inactive)
GI50 (T47D): 1.42 µM (inactive)
GI50 (Hs-578T): 17.9 µM (inactive)
GI50 (RXF 393): 2.24 µM (inactive)
GI50 (RPMI-8226): 0.887 µM (active)
GI50 (SK-MEL-28): 2.81 µM (inactive)
GI50 (M14): 2.85 µM (inactive)
GI50 (SNB-78): 2.13 µM (inactive)
GI50 (SK-MEL-2): 3.12 µM (inactive)
GI50 (HOP-92): 2.06 µM (inactive)
GI50 (ACHN): 2.1 µM (inactive)
GI50 (DMS-114): 3.85 µM (inactive)
GI50 (UO-31): 2.12 µM (inactive)
GI50 (IGROV-1): 4.01 µM (inactive)
GI50 (DMS-273): 1.77 µM (inactive)
GI50 (SN12C): 2 µM (inactive)
GI50 (PC-3): 1.79 µM (inactive)
GI50 (A549): 13.3 µM (inactive)
GI50 (HL-60): 1.38 µM (inactive)
GI50 (MOLT-4): 1.65 µM (inactive)
GI50 (OVCAR-8): 4.73 µM (inactive)
GI50 (EKVX): 9.59 µM (inactive)

CCOC(=O)C1CCn2c(nc3c2c(=O)n(C)c(=O)n3C)S1 (centres undefined)
GI50 (LOX IMVI): > 100 µM (inactive)
GI50 (OVCAR-5): > 100 µM (inactive)
GI50 (SK-OV-3): > 100 µM (inactive)
GI50 (NCI-H226): > 100 µM (inactive)
GI50 (HCT-116): > 100 µM (inactive)
GI50 (HOP-62): > 100 µM (inactive)
GI50 (OVCAR-4): > 100 µM (inactive)
GI50 (HT-29): > 100 µM (inactive)
GI50 (NCI-H460): > 100 µM (inactive)
GI50 (SK-MEL-5): > 100 µM (inactive)
GI50 (TK-10): > 100 µM (inactive)
GI50 (LXFL 529): > 100 µM (inactive)
GI50 (CAKI-1): > 100 µM (inactive)
GI50 (UACC-257): > 100 µM (inactive)
GI50 (SW-620): > 100 µM (inactive)
GI50 (KM-20L2): > 100 µM (inactive)
GI50 (CCRF-CEM): > 100 µM (inactive)
GI50 (Malme-3M): > 100 µM (inactive)
GI50 (SF-539): > 100 µM (inactive)
GI50 (SNB-75): > 100 µM (inactive)
GI50 (U-251): > 100 µM (inactive)
GI50 (OVCAR-3): > 100 µM (inactive)
GI50 (HOP-18): > 100 µM (inactive)
GI50 (SNB-19): > 100 µM (inactive)
GI50 (NCI-H522): > 100 µM (inactive)
GI50 (UACC-62): > 100 µM (inactive)
GI50 (K562): > 100 µM (inactive)
GI50 (SF-295): > 100 µM (inactive)
GI50 (HCT-15): > 100 µM
GI50 (SR): 77.1 µM (inactive)
GI50 (DLD-1): > 100 µM (inactive)
GI50 (NCI-H23): > 100 µM (inactive)
GI50 (SF-268): > 100 µM (inactive)
GI50 (RXF 393): > 100 µM (inactive)
GI50 (RPMI-8226): > 100 µM (inactive)
GI50 (M14): > 100 µM (inactive)
GI50 (SNB-78): > 100 µM (inactive)
GI50 (SK-MEL-2): > 100 µM (inactive)
GI50 (ACHN): > 100 µM (inactive)
GI50 (IGROV-1): > 100 µM (inactive)
GI50 (DMS-273): > 100 µM (inactive)
GI50 (SN12C): > 100 µM (inactive)
GI50 (A549): > 100 µM (inactive)
GI50 (HL-60): > 100 µM (inactive)
GI50 (MOLT-4): > 100 µM (inactive)
GI50 (OVCAR-8): > 100 µM (inactive)
GI50 (EKVX): > 100 µM (inactive)

Cc1cc(=O)oc2c1cc1ccc3cccc4ccc2c1c34
GI50 (LOX IMVI): > 100 µM (inactive)
GI50 (SK-OV-3): > 100 µM (inactive)
GI50 (NCI-H226): > 100 µM (inactive)
GI50 (HT-29): > 100 µM (inactive)
GI50 (NCI-H460): 89.3 µM (inactive)
GI50 (SK-MEL-5): > 100 µM (inactive)
GI50 (TK-10): > 100 µM (inactive)
GI50 (LXFL 529): > 100 µM (inactive)
GI50 (CAKI-1): > 100 µM (inactive)
GI50 (SW-620): > 100 µM (inactive)
GI50 (KM-20L2): > 100 µM (inactive)
GI50 (CCRF-CEM): > 100 µM (inactive)
GI50 (Malme-3M): > 100 µM (inactive)
GI50 (SF-539): 58.6 µM (inactive)
GI50 (SNB-75): 41 µM (inactive)
GI50 (U-251): 41.2 µM (inactive)
GI50 (OVCAR-3): > 100 µM (inactive)
GI50 (HOP-18): > 100 µM (inactive)
GI50 (SNB-19): 64.7 µM (inactive)
GI50 (NCI-H522): 64.7 µM (inactive)
GI50 (UACC-62): > 100 µM (inactive)
GI50 (K562): > 100 µM (inactive)
GI50 (SF-295): 40.4 µM (inactive)
GI50 (COLO 205): > 100 µM (inactive)
GI50 (HCT-15): > 100 µM
GI50 (DLD-1): > 100 µM (inactive)
GI50 (M19-MEL): > 100 µM (inactive)
GI50 (NCI-H23): > 100 µM (inactive)
GI50 (A498): > 100 µM (inactive)
GI50 (SF-268): > 100 µM (inactive)
GI50 (RPMI-8226): > 100 µM (inactive)
GI50 (SK-MEL-28): > 100 µM (inactive)
GI50 (M14): > 100 µM (inactive)
GI50 (SNB-78): 83 µM (inactive)
GI50 (SK-MEL-2): > 100 µM (inactive)
GI50 (HOP-92): 31.5 µM (inactive)
GI50 (ACHN): 46.7 µM (inactive)
GI50 (UO-31): > 100 µM (inactive)
GI50 (IGROV-1): > 100 µM (inactive)
GI50 (SN12C): > 100 µM (inactive)
GI50 (HL-60): > 100 µM (inactive)
GI50 (MOLT-4): > 100 µM (inactive)
GI50 (OVCAR-8): > 100 µM (inactive)
GI50 (EKVX): > 100 µM (inactive)
